The values below come from publication PMC9856672, “SGC-CAMKK2-1: A Chemical Probe for CAMKK2” (Cells, 2023).

SMILES strings stand for the structures.

For assay [1], the target named is T1, BMX (Homo sapiens, UniProt P51813).
T1 construct: purchased Eurofins DiscoverX KINOMEscan
Briefly: KINOMEscan 1 μM, BMX. In kind it is binding. The note with it: 1000 nM; Entrez BMX; read-out: Percent Control. The source says: (§1) Supplement cells-12-00287-s001.zip/File S2. KinomeScan data for the CAMKK2 probe and negative control.xlsx, sheet "SGC-CAMKK2-1" | column: Percent Control

For assay [2], the target named is T2, MST2 (Homo sapiens, UniProt Q13188).
T2 construct: purchased Eurofins DiscoverX KINOMEscan
Briefly: KINOMEscan 1 μM, MST2. Format: binding. The note with it: 1000 nM; Entrez STK3; read-out: Percent Control.
Description: as §1

In assay [3] the target is T3, PDPK1 (Homo sapiens, UniProt O15530).
T3 construct: purchased Eurofins DiscoverX KINOMEscan
Briefly: KINOMEscan 1 μM, PDPK1. In kind it is binding. Conditions: 1000 nM; Entrez PDPK1; read-out: Percent Control.
Description: as §1

The target in assay [4] is T4, PRKD1 (Homo sapiens, UniProt Q15139).
T4 construct: purchased Eurofins DiscoverX KINOMEscan
Briefly: DiscoverX KINOMEscan binding assay at 1 μM, PRKD1. The note with it: Compound Concentration 1000 nM, read-out: Percent Control.
Description: as §1

The target in assay [5] is T5, LRRK2 (Homo sapiens, UniProt Q5S007).
T5 construct: purchased Eurofins DiscoverX KINOMEscan
Briefly: KINOMEscan 1 μM, LRRK2. Format: binding. Conditions: 1000 nM; Entrez LRRK2; read-out: Percent Control.
Description: as §1

In assay [6] the target is T6, MKNK1 (Homo sapiens, UniProt Q9BUB5).
T6 construct: purchased Eurofins DiscoverX KINOMEscan
Briefly: KINOMEscan 1 μM, MKNK1. Format: binding. The note with it: 1000 nM; Entrez MKNK1; read-out: Percent Control.
Description: as §1

The target of assay [7] is T7, PFTK1 (Homo sapiens, UniProt O94921).
T7 construct: purchased Eurofins DiscoverX KINOMEscan
Briefly: DiscoverX KINOMEscan binding assay at 1 μM, PFTK1. Conditions: PFTK1 (CDK14); Compound Concentration 1000 nM; read-out: Percent Control.
Description: as §1

Assay [8] has as its target T8, ERK4 (Homo sapiens, UniProt P31152).
T8 construct: purchased Eurofins DiscoverX KINOMEscan
Briefly: KINOMEscan 1 μM, ERK4. In kind it is binding. Conditions: 1000 nM; Entrez MAPK4; read-out: Percent Control.
Description: as §1

Assay [9] has as its target T9, ABL1(F317L)-phosphorylated (Homo sapiens, UniProt P00519, F317L).
T9 construct: purchased Eurofins DiscoverX KINOMEscan
Briefly: KINOMEscan 1 μM, ABL1(F317L)-phosphorylated. Format: binding. The note with it: 1000 nM; Entrez ABL1; read-out: Percent Control.
Description: as §1

The target of assay [10] is T10, BLK (Homo sapiens, UniProt P51451).
T10 construct: purchased Eurofins DiscoverX KINOMEscan
Briefly: KINOMEscan 1 μM, BLK. In kind it is binding. Conditions: 1000 nM; Entrez BLK; read-out: Percent Control.
Description: as §1

The target of assay [11] is T11, ERBB3 (Homo sapiens, UniProt P21860).
T11 construct: purchased Eurofins DiscoverX KINOMEscan
Briefly: KINOMEscan 1 μM, ERBB3. Format: binding. The note with it: 1000 nM; Entrez ERBB3; read-out: Percent Control.
Description: as §1

In assay [12] the target is T12, GCN2(Kin.Dom.2,S808G) (Homo sapiens, UniProt Q9P2K8, S808G).
T12 construct: GCN2(Kin.Dom.2,S808G); purchased Eurofins DiscoverX KINOMEscan
Briefly: KINOMEscan 1 μM, GCN2(Kin.Dom.2,S808G). Format: binding. Conditions: 1000 nM; Entrez EIF2AK4; read-out: Percent Control.
Description: as §1

The target in assay [13] is T13, CAMK1G (Homo sapiens, UniProt Q96NX5).
T13 construct: purchased Eurofins DiscoverX KINOMEscan
Briefly: KINOMEscan 1 μM, CAMK1G. Format: binding. Conditions: 1000 nM; Entrez CAMK1G; read-out: Percent Control.
Description: as §1

Assay [14] addresses T14, AURKC (Homo sapiens, UniProt Q9UQB9).
T14 construct: purchased Eurofins DiscoverX KINOMEscan
Briefly: KINOMEscan 1 μM, AURKC. In kind it is binding. Conditions: 1000 nM; Entrez AURKC; read-out: Percent Control.
Description: as §1

The target of assay [15] is T15, CDK7 (Homo sapiens, UniProt P50613).
T15 construct: purchased Eurofins DiscoverX KINOMEscan
Briefly: KINOMEscan 1 μM, CDK7. In kind it is binding. Conditions: 1000 nM; Entrez CDK7; read-out: Percent Control.
Description: as §1

In assay [16] the target is T16, JNK3 (Homo sapiens, UniProt P53779).
T16 construct: purchased Eurofins DiscoverX KINOMEscan
Briefly: KINOMEscan 1 μM, JNK3. In kind it is binding. The note with it: 1000 nM; Entrez MAPK10; read-out: Percent Control.
Description: as §1

Assay [17] has as its target T17, PAK2 (Homo sapiens, UniProt Q13177).
T17 construct: purchased Eurofins DiscoverX KINOMEscan
Briefly: KINOMEscan 1 μM, PAK2. In kind it is binding. Conditions: 1000 nM; Entrez PAK2; read-out: Percent Control.
Description: as §1

Assay [18] has as its target T18, SYK (Homo sapiens, UniProt P43405).
T18 construct: purchased Eurofins DiscoverX KINOMEscan
Briefly: KINOMEscan 1 μM, SYK. In kind it is binding. The note with it: 1000 nM; Entrez SYK; read-out: Percent Control.
Description: as §1

Assay [19] concerns the target T19, ALK(C1156Y) (Homo sapiens, UniProt Q9UM73, C1156Y).
T19 construct: purchased Eurofins DiscoverX KINOMEscan
Briefly: KINOMEscan at 1 μM, ALK(C1156Y). Format: binding. The note with it: 1000 nM, read-out: Percent Control. The source says:
(§2) Supplement cells-12-00287-s001.zip/File S2. KinomeScan data for the CAMKK2 probe and negative control.xlsx, sheet "SGC-CAMKK2-1N" | column: Percent Control

Assay [20] has as its target T20, FES (Homo sapiens, UniProt P07332).
T20 construct: purchased Eurofins DiscoverX KINOMEscan
Briefly: KINOMEscan at 1 μM, FES. Format: binding. The note with it: 1000 nM, read-out: Percent Control.
Description: as §2

The target in assay [21] is T21, p38-alpha (Homo sapiens, UniProt Q16539).
T21 construct: purchased Eurofins DiscoverX KINOMEscan
Briefly: KINOMEscan at 1 μM, p38-alpha. Format: binding. The note with it: 1000 nM, read-out: Percent Control.
Description: as §2

Assay [22] deals with T22, PAK3 (Homo sapiens, UniProt O75914).
T22 construct: purchased Eurofins DiscoverX KINOMEscan
Briefly: KINOMEscan binding assay at 1 μM, PAK3. The note with it: Compound Concentration 1000 nM; read-out: Percent Control.
Description: as §2

In assay [23] the target is T23, PRKX (Homo sapiens, UniProt P51817).
T23 construct: purchased Eurofins DiscoverX KINOMEscan
Briefly: KINOMEscan at 1 μM, PRKX. In kind it is binding. The note with it: 1000 nM, read-out: Percent Control.
Description: as §2

Assay [24] addresses T24, TAOK2 (Homo sapiens, UniProt Q9UL54).
T24 construct: purchased Eurofins DiscoverX KINOMEscan
Briefly: KINOMEscan at 1 μM, TAOK2. Conditions: 1000 nM, read-out: Percent Control. In kind it is binding.
Description: as §2

The target in assay [25] is T25, DLK (Homo sapiens, UniProt Q12852).
T25 construct: purchased Eurofins DiscoverX KINOMEscan
Briefly: KINOMEscan at 1 μM, DLK. In kind it is binding. The note with it: 1000 nM, read-out: Percent Control.
Description: as §2

Assay [26] concerns the target T26, PCTK2 (Homo sapiens, UniProt Q00537).
T26 construct: purchased Eurofins DiscoverX KINOMEscan
Briefly: KINOMEscan at 1 μM, PCTK2. The note with it: 1000 nM, read-out: Percent Control. Format: binding.
Description: as §2

The target in assay [27] is T5, LRRK2. Briefly: KINOMEscan at 1 μM, LRRK2. The note with it: 1000 nM, read-out: Percent Control. Format: binding.
Description: as §2

In assay [28] the target is T27, EPHB1 (Homo sapiens, UniProt P54762).
T27 construct: purchased Eurofins DiscoverX KINOMEscan
Briefly: KINOMEscan at 1 μM, EPHB1. The note with it: 1000 nM, read-out: Percent Control. In kind it is binding.
Description: as §2

In assay [29] the target is T28, PAK6 (Homo sapiens, UniProt Q9NQU5).
T28 construct: purchased Eurofins DiscoverX KINOMEscan
Briefly: KINOMEscan at 1 μM, PAK6. Format: binding. Conditions: 1000 nM, read-out: Percent Control.
Description: as §2

The target of assay [30] is T29, HASPIN (Homo sapiens, UniProt Q8TF76).
T29 construct: purchased Eurofins DiscoverX KINOMEscan
Briefly: KINOMEscan binding assay at 1 μM, HASPIN. Conditions: Compound Concentration 1000 nM; read-out: Percent Control.
Description: as §2

Assay [31] concerns the target T30, KIT(D816V) (Homo sapiens, UniProt P10721, D816V).
T30 construct: purchased Eurofins DiscoverX KINOMEscan
Briefly: KINOMEscan at 1 μM, KIT(D816V). Format: binding. Conditions: 1000 nM, read-out: Percent Control.
Description: as §2

For assay [32], the target named is T2, MST2. Briefly: KINOMEscan at 1 μM, MST2. Format: binding. The note with it: 1000 nM, read-out: Percent Control.
Description: as §2

In assay [33] the target is T31, IKK-epsilon (Homo sapiens, UniProt Q14164).
T31 construct: purchased Eurofins DiscoverX KINOMEscan
Briefly: KINOMEscan at 1 μM, IKK-epsilon. Conditions: 1000 nM, read-out: Percent Control. Format: binding.
Description: as §2

T5 sequence (Q5S007 whole entry): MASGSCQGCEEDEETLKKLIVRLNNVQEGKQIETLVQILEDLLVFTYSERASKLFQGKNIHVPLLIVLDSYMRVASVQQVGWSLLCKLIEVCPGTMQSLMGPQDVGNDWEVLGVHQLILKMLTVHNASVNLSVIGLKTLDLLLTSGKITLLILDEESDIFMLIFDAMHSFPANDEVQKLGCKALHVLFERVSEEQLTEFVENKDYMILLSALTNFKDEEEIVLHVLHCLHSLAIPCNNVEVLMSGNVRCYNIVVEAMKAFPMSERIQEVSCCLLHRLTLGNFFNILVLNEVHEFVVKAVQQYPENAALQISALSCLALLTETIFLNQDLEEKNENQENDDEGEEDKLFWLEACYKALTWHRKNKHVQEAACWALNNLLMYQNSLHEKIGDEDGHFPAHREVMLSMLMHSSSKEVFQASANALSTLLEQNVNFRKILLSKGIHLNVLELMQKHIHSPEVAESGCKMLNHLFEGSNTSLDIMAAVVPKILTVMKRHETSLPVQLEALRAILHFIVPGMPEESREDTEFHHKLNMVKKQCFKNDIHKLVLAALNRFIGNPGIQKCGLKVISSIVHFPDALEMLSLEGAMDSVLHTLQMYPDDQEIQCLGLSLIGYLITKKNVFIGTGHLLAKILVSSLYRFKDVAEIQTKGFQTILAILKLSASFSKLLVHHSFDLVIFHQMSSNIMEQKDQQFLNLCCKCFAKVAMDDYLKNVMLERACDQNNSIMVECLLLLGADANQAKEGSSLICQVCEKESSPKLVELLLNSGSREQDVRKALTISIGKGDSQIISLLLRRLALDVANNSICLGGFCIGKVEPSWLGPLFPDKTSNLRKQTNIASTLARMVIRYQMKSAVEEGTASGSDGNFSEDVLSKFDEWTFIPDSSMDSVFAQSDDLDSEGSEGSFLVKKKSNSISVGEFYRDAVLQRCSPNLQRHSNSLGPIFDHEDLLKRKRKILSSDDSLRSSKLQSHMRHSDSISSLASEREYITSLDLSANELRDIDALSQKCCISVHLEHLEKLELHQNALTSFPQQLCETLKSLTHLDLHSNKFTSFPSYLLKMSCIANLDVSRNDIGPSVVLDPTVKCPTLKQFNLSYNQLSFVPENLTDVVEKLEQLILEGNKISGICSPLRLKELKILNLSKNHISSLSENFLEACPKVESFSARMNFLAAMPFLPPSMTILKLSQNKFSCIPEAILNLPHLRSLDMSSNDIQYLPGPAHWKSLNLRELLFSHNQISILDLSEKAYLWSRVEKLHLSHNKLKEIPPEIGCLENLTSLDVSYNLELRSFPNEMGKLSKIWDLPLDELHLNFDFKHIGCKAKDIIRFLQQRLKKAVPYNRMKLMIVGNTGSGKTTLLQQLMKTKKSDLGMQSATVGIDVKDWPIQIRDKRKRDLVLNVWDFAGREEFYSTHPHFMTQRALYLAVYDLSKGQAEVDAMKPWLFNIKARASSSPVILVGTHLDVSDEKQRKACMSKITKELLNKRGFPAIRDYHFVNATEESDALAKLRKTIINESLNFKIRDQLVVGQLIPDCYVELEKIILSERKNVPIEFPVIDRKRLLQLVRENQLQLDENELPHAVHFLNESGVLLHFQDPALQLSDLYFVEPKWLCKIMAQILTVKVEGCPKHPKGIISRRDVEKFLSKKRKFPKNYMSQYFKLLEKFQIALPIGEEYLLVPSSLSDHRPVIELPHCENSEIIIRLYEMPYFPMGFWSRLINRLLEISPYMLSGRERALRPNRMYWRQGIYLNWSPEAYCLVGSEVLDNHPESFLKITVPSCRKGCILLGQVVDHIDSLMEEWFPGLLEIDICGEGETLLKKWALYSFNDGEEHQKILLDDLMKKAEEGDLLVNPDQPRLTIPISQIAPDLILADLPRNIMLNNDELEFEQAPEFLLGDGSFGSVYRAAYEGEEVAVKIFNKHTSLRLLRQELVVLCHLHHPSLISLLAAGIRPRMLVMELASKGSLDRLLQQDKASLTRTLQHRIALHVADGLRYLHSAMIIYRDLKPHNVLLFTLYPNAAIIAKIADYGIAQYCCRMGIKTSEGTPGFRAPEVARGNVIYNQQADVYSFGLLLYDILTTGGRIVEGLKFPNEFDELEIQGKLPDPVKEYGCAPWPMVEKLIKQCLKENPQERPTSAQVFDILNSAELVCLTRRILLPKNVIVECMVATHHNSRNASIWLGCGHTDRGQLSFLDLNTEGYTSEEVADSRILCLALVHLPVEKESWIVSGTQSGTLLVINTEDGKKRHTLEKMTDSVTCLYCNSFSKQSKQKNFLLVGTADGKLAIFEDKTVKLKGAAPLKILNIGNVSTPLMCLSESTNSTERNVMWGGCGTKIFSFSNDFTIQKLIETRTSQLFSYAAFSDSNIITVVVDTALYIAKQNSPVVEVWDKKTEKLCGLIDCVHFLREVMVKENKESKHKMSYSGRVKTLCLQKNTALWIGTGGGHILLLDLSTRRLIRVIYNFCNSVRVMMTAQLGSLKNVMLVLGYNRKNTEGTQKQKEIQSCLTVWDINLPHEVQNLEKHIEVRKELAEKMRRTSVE
T2 sequence (Q13188 whole entry): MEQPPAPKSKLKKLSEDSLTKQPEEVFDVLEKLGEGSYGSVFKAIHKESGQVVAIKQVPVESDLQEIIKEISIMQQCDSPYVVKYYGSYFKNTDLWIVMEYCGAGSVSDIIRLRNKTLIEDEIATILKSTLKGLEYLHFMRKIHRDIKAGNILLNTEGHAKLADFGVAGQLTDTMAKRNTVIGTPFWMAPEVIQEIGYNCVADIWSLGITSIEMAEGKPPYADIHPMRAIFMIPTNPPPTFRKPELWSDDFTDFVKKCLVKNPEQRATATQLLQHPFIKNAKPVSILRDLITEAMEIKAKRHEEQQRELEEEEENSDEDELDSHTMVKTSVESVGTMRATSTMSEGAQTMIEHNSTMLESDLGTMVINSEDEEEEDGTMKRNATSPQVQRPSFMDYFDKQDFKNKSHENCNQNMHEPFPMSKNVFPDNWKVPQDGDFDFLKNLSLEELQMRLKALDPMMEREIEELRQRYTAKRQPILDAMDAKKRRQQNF
T12 sequence (Q9P2K8 590-1001 S808G limits assumed): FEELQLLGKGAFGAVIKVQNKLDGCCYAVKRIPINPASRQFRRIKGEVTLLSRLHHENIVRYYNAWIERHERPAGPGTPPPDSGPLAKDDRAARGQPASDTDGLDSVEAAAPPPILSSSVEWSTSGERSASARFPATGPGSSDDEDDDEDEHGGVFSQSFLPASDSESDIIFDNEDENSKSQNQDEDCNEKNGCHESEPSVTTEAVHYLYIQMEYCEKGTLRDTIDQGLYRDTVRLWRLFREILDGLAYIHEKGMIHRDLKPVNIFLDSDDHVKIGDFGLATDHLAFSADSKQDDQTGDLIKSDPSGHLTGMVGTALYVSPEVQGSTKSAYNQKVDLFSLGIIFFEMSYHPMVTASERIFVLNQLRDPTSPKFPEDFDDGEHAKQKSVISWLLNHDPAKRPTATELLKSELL
T11 sequence (P21860 20-1342): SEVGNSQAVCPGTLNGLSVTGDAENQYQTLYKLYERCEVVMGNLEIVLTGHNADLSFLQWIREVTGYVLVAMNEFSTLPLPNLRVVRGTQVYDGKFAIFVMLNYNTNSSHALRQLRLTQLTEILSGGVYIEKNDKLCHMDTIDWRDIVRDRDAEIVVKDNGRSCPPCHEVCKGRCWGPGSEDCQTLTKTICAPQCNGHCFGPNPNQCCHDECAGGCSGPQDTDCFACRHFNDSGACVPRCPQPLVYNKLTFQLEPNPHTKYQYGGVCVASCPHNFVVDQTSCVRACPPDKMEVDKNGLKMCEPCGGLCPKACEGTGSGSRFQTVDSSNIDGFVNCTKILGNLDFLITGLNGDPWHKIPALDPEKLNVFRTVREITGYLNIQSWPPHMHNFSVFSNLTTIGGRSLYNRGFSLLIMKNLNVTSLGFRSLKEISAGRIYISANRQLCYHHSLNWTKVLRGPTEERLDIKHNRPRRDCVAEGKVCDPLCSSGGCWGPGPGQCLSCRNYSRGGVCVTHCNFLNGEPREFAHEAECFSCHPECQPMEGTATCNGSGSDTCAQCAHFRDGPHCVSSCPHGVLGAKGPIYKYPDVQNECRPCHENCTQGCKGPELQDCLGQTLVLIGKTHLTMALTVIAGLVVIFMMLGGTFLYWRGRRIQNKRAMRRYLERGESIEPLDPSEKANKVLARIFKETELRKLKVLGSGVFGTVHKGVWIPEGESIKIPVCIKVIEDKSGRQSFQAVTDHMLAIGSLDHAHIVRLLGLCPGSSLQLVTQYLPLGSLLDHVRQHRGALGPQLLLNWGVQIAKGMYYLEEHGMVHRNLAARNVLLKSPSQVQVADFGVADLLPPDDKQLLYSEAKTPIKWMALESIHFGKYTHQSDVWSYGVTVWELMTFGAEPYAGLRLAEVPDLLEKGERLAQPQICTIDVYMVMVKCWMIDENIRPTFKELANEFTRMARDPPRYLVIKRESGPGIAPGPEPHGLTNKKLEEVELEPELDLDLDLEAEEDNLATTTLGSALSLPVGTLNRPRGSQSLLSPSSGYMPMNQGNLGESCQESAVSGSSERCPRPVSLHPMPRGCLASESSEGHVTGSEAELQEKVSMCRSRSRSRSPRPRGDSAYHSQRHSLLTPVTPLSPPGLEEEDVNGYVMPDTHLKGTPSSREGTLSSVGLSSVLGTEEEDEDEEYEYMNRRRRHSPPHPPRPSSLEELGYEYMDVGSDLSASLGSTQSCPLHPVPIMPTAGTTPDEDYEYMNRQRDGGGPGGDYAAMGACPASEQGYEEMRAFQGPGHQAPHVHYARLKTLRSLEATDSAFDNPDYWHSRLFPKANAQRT
T21 sequence (Q16539 whole entry): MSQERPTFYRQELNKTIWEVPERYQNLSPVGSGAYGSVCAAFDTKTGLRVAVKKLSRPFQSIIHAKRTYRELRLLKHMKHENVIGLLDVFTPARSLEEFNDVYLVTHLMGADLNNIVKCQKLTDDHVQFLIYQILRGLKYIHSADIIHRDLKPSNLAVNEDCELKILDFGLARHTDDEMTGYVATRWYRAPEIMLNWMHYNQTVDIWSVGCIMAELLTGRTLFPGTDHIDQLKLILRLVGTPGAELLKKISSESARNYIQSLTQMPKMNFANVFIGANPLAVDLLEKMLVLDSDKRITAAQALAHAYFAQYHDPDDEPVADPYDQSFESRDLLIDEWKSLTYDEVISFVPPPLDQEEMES

Take `Cc1cccc(-c2cnc3occ(-c4ccc(C(=O)O)c(C5CCCC5)c4)c3c2)c1` [SGC-CAMKK2-1 (YL-36)]: the remaining binding at 1 µM in assay [1] came out at 100%; in assay [2], 95%; in [3] it was 95%; in assay [4] it was 100%; in [5] it was 70%; in [6] it was 100%. The remaining binding at 1 µM in [7] amounted to 100%; in assay [8], 100%; in assay [9], 100%; in [10], 70%; in [11], 86%; in assay [12], 42%. In addition, the remaining binding at 1 µM in assay [13] was 54%; in assay [14], 99%; in assay [15], 92%; in assay [16], 100%; in assay [17], 55%; in assay [18], 85%.

With `O=C(O)c1ccc(-c2coc3ncc(-c4ccccc4)cc23)cc1Cl` [SGC-CAMKK2-1N (UNC-YL-83)], the remaining binding at 1 µM in [19] worked out at 0%; in assay [20] it was 88%; in assay [21], 79%; in [22], 100%; in assay [23], 76%; in [24] it was 78%. Moreover, the remaining binding at 1 µM in [25] came out at 77%; in assay [26], 81%; in assay [27], 47%; in [28], 91%; in assay [29], 63%; in assay [30] it was 100%. For the same molecule, the remaining binding at 1 µM in assay [31] turned out to be 32%; in [32], 79%; in [33], 98%.
